Results from patent EP1655287A1, “PROBE FOR DISEASES WITH AMYLOID ACCUMULATION, AMYLOID-STAINING AGENT, REMEDY AND PREVENTIVE FOR DISEASES WITH AMYLOID ACCUMULATION AND DIAGNOSTIC PROBE AND STAINING AGENT FOR NEUROFIBRILLARY CHANGE” (priority 2003, dated 2005).
Read-outs that look alike come from different tables or passages of the source.

Legend:
[1] = test system: Amyloid β-protein; experiment: Screening of the degree of β-structure recognition (fluorescence, in the presence of Congo red); format: binding; details: test compound 5 µM, amyloid β-protein 5 µM, Congo red 0.1 µM, phosphate buffer pH 7.4
[2] = biological target: T1, senile plaques (Homo sapiens, UniProt P05067); experiment: Staining of senile plaques and diffuse plaques in brain sections, compared with thioflavin S, BSB or anti-Aβ antibody 6F/3D immunostaining; format: binding, patient with Alzheimer's disease; details: 100 µM compound in 50% ethanol; for staining properties in sections of the brain of a patient with Alzheimer's disease: compared with thioflavin S (and BSB) on adjacent sections; for staining properties compared with immunostaining of anti-Aβ antibody 6F/3D: adjacent sections immunostained with 6F/3D
T1 construct: The former has, as the main component, amyloid β-protein (Aβ protein) taking β-sheet structures; from tissue; host or cells: paraffin-embedded temporal lobe or hippocampus sections of an Alzheimer's disease patient's brain (Fukushimura Hospital)
Excerpt: The following explanation is made about testing of staining properties of the compounds of the present invention on brain sections of an Alzheimer's disease patient. • (1) Temporal lobe or hippocampus specimens of the brain of a patient who had been definitely diagnosed pathologically as Alzheimer's disease and of a normal aged individual were used. These specimens were provided from Fukushimura Hospital, our joint research facility, with the consent to their use for research purpose received from the bereaved family of the patient (BF Research Laboratories Institutional Ethics Board Permission No. RS-99-02). • (2) The brain tissues embedded in paraffin were sliced 6 or 8 µm thick, extended on slides, and dried. The paraffin-embedded brain sections were deparaffined by washing sequentially with xylene (10 minutes, twice), 100% ethanol (15 minutes, twice), 95% ethanol (15 minutes, twice), and a stream of water (10 minutes). • (3) Pre-treatment for staining with compounds of the present invention involved treating the sections for eliminating self-fluorescence due to lipofuscin. First, the deparaffined sections were immersed into a 10% formalin solution for 60 minutes and washed with PBS for 5 minutes, followed by immersion into a 0.25% solution of KMnO4 for 90 minutes. After washing twice with PBS for 2 minutes each, the sections were immersed into a solution of 0.1% K2S2O5/oxalic acid for about 30 seconds each, and then washed three times with PBS for 2 minutes each. • (4) About 150 µl of a 100 µM solution of a compound of the present invention dissolved in 50% ethanol was added dropwise onto the sections and allowed the reaction to be carried out for 10 minutes. The sections were dipped into tap water five times, and then 50% ethanol three to five times, followed by immediate classification. After that, the sections were immersed into PBS for 60 minutes, enclosed with Fluor Save Reagent (Calbiochem), and examined under a fluorescent microscope (Nikon, Eclips E800). Pictures were taken using a digital camera (Plaroid PDMCII).
Immunostaining was carried out as follows. • (a) Procedures for immunostaining amyloid β-protein: • (1) After the sections were deparaffined, the sections were washed twice in distilled water for 2 minutes each, and tissues were marked with an Immunopen. About 150 µl of formic acid was added dropwise and allowed to stand at room temperature for 5 minutes. The sections were washed with tap water for 5 minutes and immersed into cold PBS-Tween 20 for 2 minutes, and then about 150 µl of a 0.05% trypsin solution was added dropwise and allowed the reaction to be carried out at 37°C for 15 minutes. • (2) In an ice bath, the sections were washed twice with cold PBS-Tween 20 for 5 minutes each, and two drops of blocking serum were added and allowed the reaction to be carried out at 37°C for 15 minutes. Excess water was removed, and about 150 µl of 6F/3D, an antibody specific to amyloid β-protein (DAKO; diluted 1:50) was added dropwise and allowed the reaction to be carried out at 37°C for 1 hour. • (3) Further, after washing five times with cold PBS-Tween 20 for 2 minutes each, two drops of a solution of goat antimouse IgG (H+L) conjugated to biotin were added and allowed the reaction to be carried out at 37°C for 1 hour. After that, the sections were washed three times with cold PBS-Tween 20 for 2 minutes each, and two drops of ABS solution (a streptavidin-biotin-peroxidase complex solution) were added and allowed to stand for 30 minutes. The sections were again washed three times with cold PBS-Tween 20 for 2 minutes each, and about 150 µl of DAB solution (prepared by dissolving 10 mg of DAB in 20 ml of 0.05 mol/l Tris-HCl buffer and adding 100 µl of 3% hydrogen peroxide immediately before use) were added and allowed the color to be developed sufficiently. Then, the sections were washed with distilled water for 1 minute to stop the reaction, enclosed, and examined under a microscope.

[3] = mouse, in vivo, iv, 2 min
Method: (§1) (B) Testing of blood-brain barrier permeability Measurements of blood-brain barrier permeability were made according to the following procedures. Compounds of the present invention were intravenously administered to mice to determine their in vivo blood-brain barrier permeability. • (1) Mice utilized Slc:ICR weighing 30-40 g (7 weeks old, n=3) (Nippon SLC). • (2) A test compound was dissolved in a mixture of 1N HCl, polyethylene glycol 400, and DMSO, or in DMSO or ethyl alcohol, and then diluted with purified water, and injected via tail vein. Two minutes after administration, the mice, under ether anesthesia, were subjected to taking blood from the abdominal aorta with a heparin-treated syringe and removing the brain. • (3) After taking blood, blood samples were centrifuged at 14,000 rpm at 4°C for 10 minutes, and their supernatants were kept at -80°C as plasma sample. The brain (including cerebellum) was kept at -80°C after its removal. • (4) The plasma sample, when used, was thawed, diluted with purified water, and then applied to a conditioned C18 solid-phase extraction cartridge (bond elute C18, 200 mg, Varian), followed by elution with methyl alcohol. Alternatively, after thawing the plasma sample, a diethyl ether/cyclohexane mixture was added, and the mixture was shaken, and then centrifuged to separate an oil layer. • (5) The brain material, when used, was subjected to measuring its wet weight with the brain remaining frozen, and saline was added to the brain for homogenization. The homogenate was centrifuged for 10 minutes, and the supernatant was applied to a conditioned C18 solid-phase extraction cartridge and eluted with methyl alcohol. Alternatively, after measuring the wet weight of the frozen brain, a diethyl ether/cyclohexane mixture was added to the brain, and the mixture was homogenized, shaken, and then centrifuged to separate an oil layer. • (6) The absorbance and fluorescence were detected employing high performance liquid chromatography. • (7) For each of the plasma and brain, the content of the test compound in the plasma or brain (%ID (injected dose)/ml or g) was determined, relative to the administered dose.

[4] = Acute toxicity testing, intravenous administration; format: in vivo; details: male Crj:CD1 mice, via tail vein, observed up to 7 days; for MTD at 168 h: mouse, in vivo, iv, read-out: Maximum Tolerated Dose (mg/kg, intravenous administration)
Method: The following explanation is made of testing methods for properties of the compounds of the present invention. (A) Testing of acute toxicity Acute toxicity of the inventive compounds was determined employing mice by intravenous administration. Male Crj:CD1 mice were used and divided into groups of 4 mice, with an average weight of each group of 31-32 g. […] Up to 7 days after administration, observations were made.

[5] = Blood-brain barrier permeability after intravenous administration; details: for Plasma: mice, content in plasma two minutes after intravenous administration; for tissue uptake at 2 min: mouse, brain, iv
Method: as §1

T1 sequence (P05067 672-713 limits assumed): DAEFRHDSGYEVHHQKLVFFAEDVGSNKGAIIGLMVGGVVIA

| Compound | Degree of β-structure recognition (%) [1] | staining properties in sections of the brain of a patient with Alzheimer's disease [2] | Brain [3] | Plasma [3] | Maximum Tolerated Dose (mg/kg, intravenous administration) [4] | Plasma [5] | tissue uptake at 2 min [5] | staining properties compared with immunostaining of anti-Aβ antibody 6F/3D [2] | MTD at 168 h [4] |
| --- | --- | --- | --- | --- | --- | --- | --- | --- | --- |
| 2-[2-(5-dimethylaminothiazol-2-yl)ethenyl]benzoxazole [BF-215] | 82.6% | stains senile plaques | 8.8 %ID/g or ml | 2.5 %ID/g or ml | ≧ 10 mg/kg |  |  |  |  |
| CN(C)c1ncc(/C=C/c2nc3ccccc3o2)s1 [BF-197, 2-[2-(2-dimethylaminothiazol-5-yl)ethenyl]benzoxazole] | 71.8% | mainly stains senile plaques |  |  |  | 1.9 %ID/g or ml | 15 %ID/g | stains senile plaques | ≥ 10 mg/kg |
| Cc1nc(/C=C/c2cnc(N(C)C)s2)oc1C [BF-214, 2-(dimethylamino)-5-[2-(4,5-dimethyloxazol-2-yl)ethenyl]thiazole] | 58.9% | stains senile plaques |  |  |  | 2.1 %ID/g or ml | 8.8 %ID/g |  | ≥ 10 mg/kg |
| CN(C)c1ncc(/C=C/c2nc3ccc(OCCF)cc3o2)s1 [BF-227, 2-[2-(2-dimethylaminothiazol-5-yl)ethenyl]-6-(2-fluoroethyloxy)benzoxazole] | 70.2% | mainly stains senile plaques |  |  |  | 2.1 %ID/g or ml | 7.9 %ID/g | stains senile plaques (Fig. 16, wedge-shaped arrowheads) and diffuse plaques | ≥ 10 mg/kg |
